The target in one experiment is T1, recombinant Caspase-9 (Homo sapiens, UniProt P55211).
T1 construct: purchased BioVision
As to the kind of experiment: Caspase Inhibitor Drug Screening Kit (BioVision), LEHD-AFC substrate. It is filed as biochemical. As to conditions: not active site titrated. The protocol:
(§1) The half-maximal inhibitory concentrations (IC50) for NWL inhibitors (Patent publication # WO/2009/140765, WO/2010/133000, and WO/2012/140500) was determined by incubating 0 to 20 μM NWL-117 and NWL-154 with 20 nM of active site-titrated Casp6 in SB at room temperature for 5 minutes. Then, 10 μM Ac-VEID-AFC was added and fluorescence measured for 20 min at 37 °C as described above. New World Laboratories performed the IC50 determination for NWL inhibitors dissolved in dimethyl sulfoxide (DMSO) against recombinant Casp1-10 using the Caspase Inhibitor Drug Screening Kits (BioVision, San Francisco, CA) following the manufacturer’s instructions and the preferred substrates for the caspases (Caspase-1: WAD-AFC, Caspase-2: VDVAD-AFC, Caspase-3: DEVD-AFC, Caspase-4: LEVD-AFC, Caspase-5: WEHD-AFC, Casp6:VEID-AFC, Caspase-7: DEVD-AFC, Caspase-8: IETD-AFC, Caspase-9: LEHD-AFC, Caspase-10: AEVD-AFC). In transfected HCT116 cells, 0 to 100 μM NWL inhibitors were added in the culture media and left on the cells for 2 h. Cells were washed once with 1 mL ice-cold PBS, incubated on ice for 5 min with 200 μL cell lysis buffer (CLB) (50 mM HEPES, 0.1% CHAPS, 0.1 mM EDTA), and gently scraped off. Protein concentrations were determined by Bradford assay (BioRad, Mississauga, ON, CA) by measuring the absorbance at 595 nm using the BioTek Synergy H4 plate reader. […]

For a further experiment, the target named is T2, recombinant Caspase-5 (Homo sapiens, UniProt P51878).
T2 construct: purchased BioVision
Description: Caspase Inhibitor Drug Screening Kit (BioVision), WEHD-AFC substrate. It is filed as biochemical. The settings on record: not active site titrated. The protocol:
as §1

The target in the next experiment is T3, recombinant Caspase-10 (Homo sapiens, UniProt Q92851).
T3 construct: purchased BioVision
As to the kind of experiment: Caspase Inhibitor Drug Screening Kit (BioVision), AEVD-AFC substrate. The class given is biochemical. The settings on record: not active site titrated. The protocol:
as §1

A further experiment deals with T4, recombinant Caspase-4 (Homo sapiens, UniProt P49662).
T4 construct: purchased BioVision
Description: Caspase Inhibitor Drug Screening Kit (BioVision), LEVD-AFC substrate. The class given is biochemical. As to conditions: not active site titrated. The protocol:
as §1

The test system of experiment [1] is APPWT-transfected primary human CNS neurons. Description: Neuritic beading/degeneration in APPWT-transfected primary human neurons. The class given is cell-based. The settings on record: for neuritic beading: APPWT/EGFP co-expression, 48 h; for neuritic beading / percentage of beaded neurons, fold of EGFP-alone: NWL 100 μM, Z-VEID-fmk 5 μM; for percentage of beaded neurons, fold of EGFP-alone: live imaging 72 h, APPWT vehicle 1.52, EGFP-alone 1.00, mean ± SEM. The protocol:
Immunofluorescence on human neuron cultures: Primary human neurons were pre-treated 2 h and serum-deprived in the presence of 100 μM NWL-117, 100 μM NWL-154, or 5 μM Z-VEID-fmk (Biomol, Plymouth meeting, PA, USA) for 24 h. Following treatment, human neurons were washed once with warm PBS, fixed for 20 min at room temperature with 4% paraformaldehyde (Sigma, Oakville, ON, CA)/4% sucrose (BioRad, Mississauga, ON, CA) for TubΔCasp6 or 2% formaldehyde (Thermo Fisher Scientific, Waltham, MA, USA)/0.2% glutaraldehyde (Sigma, Oakville, ON, CA) for pBudEGFP or pBudEGFP/APP^WT-transfected neurons, incubated in permeabilization buffer (0.1% Triton X-100, 0.1 sodium citrate) for 1 min on ice, washed with PBS, blocked for 20 min at room temperature with 10% goat serum (Sigma, Oakville, ON, CA), and incubated with primary antibodies diluted in 10% goat serum in PBS overnight at 4 °C in a humid chamber. The glass coverslips were washed with PBS, and incubated with goat anti-rabbit secondary antibody coupled to Alexa 488 (Molecular Probes, Eugene, OR, USA) or Cy3 (GE Healthcare Life Sciences, Baie D’Urfe, QC, CA) and Hoechst 33342 (ImmunoChemistry, Bloomington, MN, USA) at 1 μg/mL for 2 h at room temperature. The coverslips were washed with PBS and rinsed in Milli-Q water before mounting in fluoromount (Dako, Burlington, ON, CA). Images were acquired by fluorescence microscopy and quantified using the ImageJ software (NIH, Bethesda, MD, USA) for TubΔCasp6 and manually counted for transfected EGFP(+)-neurons. Time lapse-imaging by live fluorescence microscopy: Primary human neurons were transfected with gold beads coated with pBudEGFP or pBudEGFP/APP^WT using a Helios Gene gun (BioRad, Mississauga, ON, CA). Briefly, cells were pre-treated with 100 μM NWL inhibitors or 5 μM Z-VEID-fmk for 2 h. The media was removed and the neurons were shot at 100 psi. The media was quickly replaced with the inhibitors present. The plasmid was expressed for 16 h before setting up the fluorescence microscope (Nikon Eclipse Ti) to acquire 20 images per condition every hour for 72 h at 37 °C with 5% CO2. The images were analyzed by counting the total number of neurons (50–100 neurons per condition per independent experiment), and the number of beaded, swollen soma, and healthy neurons. In addition, the time at which cells beaded was noted. Phase contrast microscopy: HCT116 cells, plated at a density of 1×10^5 cells/well and human neurons, plated at a density of 6×10^6 cells/well on poly-L-lysine were treated with PBS, 100 μM NWL-117, 100 μM NWL-154, or 2 μM staurosporine (Biomol, Plymouth meeting, PA, USA) for 24 h. Images were acquired with the Nikon Eclipse Ti microscope and the NIS-Elements (Version 3.10) software.

The target in another experiment is T5, recombinant Caspase-7 (Homo sapiens, UniProt P55210).
T5 construct: purchased BioVision
As to the kind of experiment: Caspase Inhibitor Drug Screening Kit (BioVision), DEVD-AFC substrate. As to conditions: not active site titrated. The class given is biochemical. The protocol:
(§2) The half-maximal inhibitory concentrations (IC50) for NWL inhibitors (Patent publication # WO/2009/140765, WO/2010/133000, and WO/2012/140500) was determined by incubating 0 to 20 μM NWL-117 and NWL-154 with 20 nM of active site-titrated Casp6 in SB at room temperature for 5 minutes. Then, 10 μM Ac-VEID-AFC was added and fluorescence measured for 20 min at 37 °C as described above. New World Laboratories performed the IC50 determination for NWL inhibitors dissolved in dimethyl sulfoxide (DMSO) against recombinant Casp1-10 using the Caspase Inhibitor Drug Screening Kits (BioVision, San Francisco, CA) following the manufacturer’s instructions and the preferred substrates for the caspases (Caspase-1: WAD-AFC, Caspase-2: VDVAD-AFC, Caspase-3: DEVD-AFC, Caspase-4: LEVD-AFC, Caspase-5: WEHD-AFC, Casp6:VEID-AFC, Caspase-7: DEVD-AFC, Caspase-8: IETD-AFC, Caspase-9: LEHD-AFC, Caspase-10: AEVD-AFC). In transfected HCT116 cells, 0 to 100 μM NWL inhibitors were added in the culture media and left on the cells for 2 h. Cells were washed once with 1 mL ice-cold PBS, incubated on ice for 5 min with 200 μL cell lysis buffer (CLB) (50 mM HEPES, 0.1% CHAPS, 0.1 mM EDTA), and gently scraped off. Protein concentrations were determined by Bradford assay (BioRad, Mississauga, ON, CA) by measuring the absorbance at 595 nm using the BioTek Synergy H4 plate reader. Caspase-6 activity was measured in 40–60 μg total protein as described above. The IC50 for recombinant and cellular caspases were determined using GraphPad Prism 5.0 (La Jolla, CA, USA) using a log (inhibitor) – response curve with a Hill slope of −1.

The next experiment addresses T6, recombinant Caspase-3 (Homo sapiens, UniProt P42574).
T6 construct: purchased BioVision
The experiment is described as above. It is filed as biochemical. As to conditions: not active site titrated. The method, then: as §2

In a further experiment the target is T7, recombinant Caspase-8 (Homo sapiens, UniProt Q14790).
T7 construct: purchased BioVision
Description: Caspase Inhibitor Drug Screening Kit (BioVision), IETD-AFC substrate. It is filed as biochemical. The settings on record: not active site titrated. The method, then:
as §1

[2] abbreviates: APPWT-transfected neurons, live imaging, 100 μM.

These results are taken from PMC5329948, “Caspase vinyl sulfone small molecule inhibitors prevent axonal degeneration in human neurons and reverse cognitive impairment in Caspase-6-overexpressing mice” (Molecular Neurodegeneration, 2017).

In general, IC50 refers to the concentration that inhibits the measured activity by half.

T7 sequence (Q14790 217-479): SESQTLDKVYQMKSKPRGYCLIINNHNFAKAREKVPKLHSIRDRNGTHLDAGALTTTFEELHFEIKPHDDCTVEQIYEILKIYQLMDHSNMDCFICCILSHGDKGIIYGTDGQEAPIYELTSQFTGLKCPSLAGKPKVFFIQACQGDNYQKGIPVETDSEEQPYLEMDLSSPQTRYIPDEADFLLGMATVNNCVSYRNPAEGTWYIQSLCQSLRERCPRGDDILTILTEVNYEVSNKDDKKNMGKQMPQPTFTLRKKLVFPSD
T3 sequence (Q92851 220-521): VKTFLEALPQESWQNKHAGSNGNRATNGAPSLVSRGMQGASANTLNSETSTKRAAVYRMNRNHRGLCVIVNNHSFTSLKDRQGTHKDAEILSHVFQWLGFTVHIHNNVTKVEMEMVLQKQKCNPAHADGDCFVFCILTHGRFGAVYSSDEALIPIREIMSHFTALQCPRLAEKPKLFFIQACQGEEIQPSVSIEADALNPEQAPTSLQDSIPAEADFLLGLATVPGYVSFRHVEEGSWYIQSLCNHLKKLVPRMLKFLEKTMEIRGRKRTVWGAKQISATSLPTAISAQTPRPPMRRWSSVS
T4 sequence (P49662 81-377): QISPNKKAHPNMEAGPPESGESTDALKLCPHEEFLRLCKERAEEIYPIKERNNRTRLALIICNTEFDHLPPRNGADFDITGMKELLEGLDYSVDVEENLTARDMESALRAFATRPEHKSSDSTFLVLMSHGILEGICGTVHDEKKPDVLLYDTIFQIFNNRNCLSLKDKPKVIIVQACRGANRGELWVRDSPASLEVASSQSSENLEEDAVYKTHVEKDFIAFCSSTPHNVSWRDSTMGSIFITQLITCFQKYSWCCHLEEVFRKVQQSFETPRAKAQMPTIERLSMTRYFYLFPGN
T5 sequence (P55210 whole entry): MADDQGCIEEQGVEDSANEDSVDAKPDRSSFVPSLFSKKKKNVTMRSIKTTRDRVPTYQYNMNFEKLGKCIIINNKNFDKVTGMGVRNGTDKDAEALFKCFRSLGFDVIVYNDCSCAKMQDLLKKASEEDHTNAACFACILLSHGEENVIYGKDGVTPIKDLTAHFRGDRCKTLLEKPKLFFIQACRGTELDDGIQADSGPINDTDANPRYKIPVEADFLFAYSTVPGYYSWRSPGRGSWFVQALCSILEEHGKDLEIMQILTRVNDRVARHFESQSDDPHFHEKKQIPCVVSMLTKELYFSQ
T1 sequence (P55211 whole entry): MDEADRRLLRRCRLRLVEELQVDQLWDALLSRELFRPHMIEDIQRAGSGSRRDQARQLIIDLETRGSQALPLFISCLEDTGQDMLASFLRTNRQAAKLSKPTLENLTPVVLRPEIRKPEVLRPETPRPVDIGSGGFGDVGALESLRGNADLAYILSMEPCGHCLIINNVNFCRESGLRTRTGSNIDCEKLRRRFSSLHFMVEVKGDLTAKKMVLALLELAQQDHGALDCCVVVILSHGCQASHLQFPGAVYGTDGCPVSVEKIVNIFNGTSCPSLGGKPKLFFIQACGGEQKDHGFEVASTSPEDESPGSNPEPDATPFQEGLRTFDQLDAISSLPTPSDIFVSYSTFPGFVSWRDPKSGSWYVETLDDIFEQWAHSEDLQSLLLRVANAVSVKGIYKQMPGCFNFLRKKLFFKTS
T6 sequence (P42574 29-277): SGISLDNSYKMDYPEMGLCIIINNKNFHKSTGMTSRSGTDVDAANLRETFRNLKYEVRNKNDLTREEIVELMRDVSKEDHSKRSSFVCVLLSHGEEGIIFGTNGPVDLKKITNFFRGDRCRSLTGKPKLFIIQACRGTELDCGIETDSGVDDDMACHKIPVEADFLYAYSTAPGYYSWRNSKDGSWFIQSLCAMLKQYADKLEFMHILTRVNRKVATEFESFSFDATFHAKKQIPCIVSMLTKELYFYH
T2 sequence (P51878 137-434): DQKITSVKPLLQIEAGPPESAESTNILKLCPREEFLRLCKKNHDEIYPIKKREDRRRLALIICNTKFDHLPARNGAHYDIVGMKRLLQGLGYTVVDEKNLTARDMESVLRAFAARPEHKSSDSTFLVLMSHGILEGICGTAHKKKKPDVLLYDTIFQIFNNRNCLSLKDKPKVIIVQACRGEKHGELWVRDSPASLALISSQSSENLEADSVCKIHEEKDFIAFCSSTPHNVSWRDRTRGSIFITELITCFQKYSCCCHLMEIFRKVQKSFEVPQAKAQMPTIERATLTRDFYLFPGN

Regarding `CCC(C)[C@H](NC(=O)[C@H](CCC(=O)O)NC(=O)[C@@H](NC(=O)OCc1ccccc1)C(C)C)C(=O)N[C@H](/C=C/S(C)(=O)=O)CC(=O)O` (some centres unmarked) [NWL-117], the IC50 at recombinant Caspase-9 was 790 nM; at recombinant Caspase-5, 19500 nM; at recombinant Caspase-10, 130 nM; on recombinant Caspase-4, 380 nM; on recombinant Caspase-7, > 100000 nM; on recombinant Caspase-3 it was 6960 nM. Also, the IC50 on recombinant Caspase-8 is 660 nM. The neuronal soma rounding entry in experiment [1] (setting [2]) is listed as “inhibited”. Further, the “neuronal survival (neurons with homogeneously distributed EGFP)” value in experiment [1] (setting [2]) is listed as “significantly increases neuronal survival”. Further, the neuritic beading result in experiment [1] is recorded as “prevented neuritic beading”. In experiment [1], the “percentage of beaded neurons, fold of EGFP-alone” value is 0.84 fold.

On to `CCC(C)[C@H](NC(=O)[C@H](CCC(=O)O)NC(=O)[C@@H](NC(=O)OCc1ccccc1)C(C)C)C(=O)N[C@H](/C=C(\Cl)S(C)(=O)=O)CC(=O)O` (some centres unmarked) [NWL-154], for which the IC50 on recombinant Caspase-9 was 6400 nM; on recombinant Caspase-5, 4190 nM; on recombinant Caspase-10, 190 nM; at recombinant Caspase-4, 1800 nM; on recombinant Caspase-7 it was > 100000 nM; at recombinant Caspase-3, 1340 nM. Moreover, the IC50 on recombinant Caspase-8 was 530 nM. Besides, in experiment [1], the neuritic beading result was “prevented neuritic beading”. The “percentage of beaded neurons, fold of EGFP-alone” value in experiment [1] was 1.07 fold.
